{"source": "PubChem BioAssay AID1963429", "about": "(Molecular Pharmacology Branch, DTP, NCI, 2024)", "tested_on": "126254-015-R-J1-PDC complex spheroid growth, % test/control", "experiment": "Anticancer human tumor 126254-015-R-J1-PDC patient-derived soft tissue sarcoma cell line growth inhibition [Asc]", "conditions": "for viability, T/C: stronger effect = lower value", "how_it_was_run": "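Tumor cells were grown as complex spheroids with human endothelial cells (HUVEC) and human mesenchymal stem cells as stroma. Agents were tested alone and in combination, in half-log steps down from the clinical Cmax, or from 10 microM where Cmax was unknown.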", "key": {"[1]": {"conditions": "curve of first compound, second compound 0.03 µM"}, "[2]": {"conditions": "curve of first compound, second compound 0.0949 µM"}, "[3]": {"conditions": "curve of first compound, second compound 0.3 µM"}, "[4]": {"conditions": "curve of first compound, second compound 0.949 µM"}, "[5]": {"conditions": "curve of first compound, second compound 3 µM"}, "[6]": {"conditions": "second compound 0.03 µM, first compound 0.0316 µM"}, "[7]": {"conditions": "second compound 0.03 µM, first compound 0.1 µM"}, "[8]": {"conditions": "second compound 0.03 µM, first compound 0.316 µM"}, "[9]": {"conditions": "second compound 0.03 µM, first compound 1 µM"}, "[10]": {"conditions": "second compound 0.0949 µM, first compound 0.0316 µM"}, "[11]": {"conditions": "second compound 0.0949 µM, first compound 0.1 µM"}, "[12]": {"conditions": "second compound 0.0949 µM, first compound 0.316 µM"}, "[13]": {"conditions": "second compound 0.0949 µM, first compound 1 µM"}, "[14]": {"conditions": "second compound 0.3 µM, first compound 0.0316 µM"}, "[15]": {"conditions": "second compound 0.3 µM, first compound 0.1 µM"}, "[16]": {"conditions": "second compound 0.3 µM, first compound 0.316 µM"}, "[17]": {"conditions": "second compound 0.3 µM, first compound 1 µM"}, "[18]": {"conditions": "second compound 0.949 µM, first compound 0.0316 µM"}, "[19]": {"conditions": "second compound 0.949 µM, first compound 0.1 µM"}, "[20]": {"conditions": "second compound 0.949 µM, first compound 0.316 µM"}, "[21]": {"conditions": "second compound 0.949 µM, first compound 1 µM"}, "[22]": {"conditions": "second compound 3 µM, first compound 0.0316 µM"}, "[23]": {"conditions": "second compound 3 µM, first compound 0.1 µM"}, "[24]": {"conditions": "second compound 3 µM, first compound 0.316 µM"}, "[25]": {"conditions": "second compound 3 µM, first compound 1 µM"}}, "note": "Values joined by “and” are separate entries in the source; they are usually repeats but may differ in a detail not shown here. Identical values can stand only once.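 Further: spheroids exposed to compound for seven days.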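 Wherever viability, T/C is given: 100% = DMSO vehicle control wells.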", "data": [{"smiles": "C#Cc1c(F)ccc2cc(O)cc(-c3ncc4c(N5CC6CCC(C5)N6)nc(OCC56CCCN5CC(F)C6)nc4c3F)c12", "note": "(centres undefined) + CCN1C(C(=O)NC23CCC(C(=O)O)(CC2)CC3)C(c2cccc(Cl)c2F)C2(C(=O)Nc3cc(Cl)ccc32)C12CCCCC2", "values": [{"measurement": "IC50", "setting": "[1]", "result": "> 10000", "unit": "nM"}, {"measurement": "IC50", "setting": "[2]", "result": "> 10000", "unit": "nM"}, {"measurement": "IC50", "setting": "[3]", "result": "> 10000", "unit": "nM"}, {"measurement": "IC50", "setting": "[4]", "result": "> 10000", "unit": "nM"}, {"measurement": "IC50", "setting": "[5]", "result": "> 10000", "unit": "nM"}, {"measurement": "viability, T/C", "setting": "[6]", "result": 96.1, "unit": "%"}, {"measurement": "viability, T/C", "setting": "[7]", "result": 102, "unit": "%"}, {"measurement": "viability, T/C", "setting": "[8]", "result": 100, "unit": "%"}, {"measurement": "viability, T/C", "setting": "[9]", "result": 96.2, "unit": "%"}, {"measurement": "viability, T/C", "setting": "second compound 0.03 µM, first compound 3.16 µM", "result": 95.5, "unit": "%"}, {"measurement": "viability, T/C", "setting": "second compound 0.03 µM, first compound 10 µM", "result": 79.4, "unit": "%"}, {"measurement": "viability, T/C", "setting": "[10]", "result": 101, "unit": "%"}, {"measurement": "viability, T/C", "setting": "[11]", "result": 95.3, "unit": "%"}, {"measurement": "viability, T/C", "setting": "[12]", "result": 96.2, "unit": "%"}, {"measurement": "viability, T/C", "setting": "[13]", "result": 84.8, "unit": "%"}, {"measurement": "viability, T/C", "setting": "second compound 0.0949 µM, first compound 3.16 µM", "result": 87.3, "unit": "%"}, {"measurement": "viability, T/C", "setting": "second compound 0.0949 µM, first compound 10 µM", "result": 69.9, "unit": "%"}, {"measurement": "viability, T/C", "setting": "[14]", "result": 99, "unit": "%"}, {"measurement": "viability, T/C", "setting": "[15]", "result": 104, "unit": "%"}, {"measurement": "viability, T/C", "setting": "[16]", "result": 97.7, "unit": "%"}, {"measurement": "viability, T/C", "setting": "[17]", "result": 101, "unit": "%"}, {"measurement": "viability, T/C", "setting": "second compound 0.3 µM, first compound 3.16 µM", "result": 99.2, "unit": "%"}, {"measurement": "viability, T/C", "setting": "second compound 0.3 µM, first compound 10 µM", "result": 88, "unit": "%"}, {"measurement": "viability, T/C", "setting": "[18]", "result": 92, "unit": "%"}, {"measurement": "viability, T/C", "setting": "[19]", "result": 103, "unit": "%"}, {"measurement": "viability, T/C", "setting": "[20]", "result": 94.9, "unit": "%"}, {"measurement": "viability, T/C", "setting": "[21]", "result": 88.7, "unit": "%"}, {"measurement": "viability, T/C", "setting": "second compound 0.949 µM, first compound 3.16 µM", "result": 97.3, "unit": "%"}, {"measurement": "viability, T/C", "setting": "second compound 0.949 µM, first compound 10 µM", "result": 93, "unit": "%"}, {"measurement": "viability, T/C", "setting": "[22]", "result": 103, "unit": "%"}, {"measurement": "viability, T/C", "setting": "[23]", "result": 94, "unit": "%"}, {"measurement": "viability, T/C", "setting": "[24]", "result": 86.1, "unit": "%"}, {"measurement": "viability, T/C", "setting": "[25]", "result": 98.6, "unit": "%"}, {"measurement": "viability, T/C", "setting": "second compound 3 µM, first compound 3.16 µM", "result": 86.2, "unit": "%"}, {"measurement": "viability, T/C", "setting": "second compound 3 µM, first compound 10 µM", "result": 78.5, "unit": "%"}]}, {"smiles": "C#Cc1c(F)ccc2cc(O)cc(-c3ncc4c(N5CC6CCC(C5)N6)nc(OCC56CCCN5CC(F)C6)nc4c3F)c12", "note": "(centres undefined)", "values": [{"measurement": "viability, T/C", "setting": "compound 0.0316 µM", "result": "97.4% and 92.6% and 97.8%"}, {"measurement": "viability, T/C", "setting": "compound 0.1 µM", "result": "92.8% and 89.8% and 108%"}, {"measurement": "viability, T/C", "setting": "compound 0.316 µM", "result": "100% and 97.5% and 103%"}, {"measurement": "viability, T/C", "setting": "compound 1 µM", "result": "94.1% and 97.4% and 93.6%"}, {"measurement": "viability, T/C", "setting": "compound 3.16 µM", "result": "101% and 95% and 92.8%"}, {"measurement": "viability, T/C", "setting": "compound 10 µM", "result": "82.5% and 76.4% and 72.9%"}, {"measurement": "IC50", "setting": "curve of compound", "result": "> 10000", "unit": "nM"}]}, {"smiles": "O=C(c1ccc(F)c(F)c1Nc1ccc(I)cc1F)N1CC(O)([C@@H]2CCCCN2)C1", "values": [{"measurement": "viability, T/C", "setting": "compound 0.00316 µM", "result": "103% and 94.5% and 96.1%"}, {"measurement": "viability, T/C", "setting": "compound 0.01 µM", "result": "109% (2×) and 105%"}, {"measurement": "viability, T/C", "setting": "compound 0.0316 µM", "result": "102% (2×) and 93.1%"}, {"measurement": "viability, T/C", "setting": "compound 0.1 µM", "result": "91.6% and 90.3% and 101%"}, {"measurement": "viability, T/C", "setting": "compound 0.316 µM", "result": "66.5% and 70.8% and 78.6%"}, {"measurement": "viability, T/C", "setting": "compound 1 µM", "result": "42.6% and 42.9% and 55.1%"}, {"measurement": "IC50", "setting": "curve of compound", "result": "699 nM and 755 nM and > 1000 nM"}]}, {"smiles": "CCN1CCN(Cc2ccc(Nc3ncc(F)c(-c4cc(F)c5nc(C)n(C(C)C)c5c4)n3)nc2)CC1", "note": "+ CCN1C(C(=O)NC23CCC(C(=O)O)(CC2)CC3)C(c2cccc(Cl)c2F)C2(C(=O)Nc3cc(Cl)ccc32)C12CCCCC2", "values": [{"measurement": "IC50", "setting": "[1]", "result": "> 1000", "unit": "nM"}, {"measurement": "IC50", "setting": "[2]", "result": "> 1000", "unit": "nM"}, {"measurement": "IC50", "setting": "[3]", "result": "> 1000", "unit": "nM"}, {"measurement": "IC50", "setting": "[4]", "result": "> 1000", "unit": "nM"}, {"measurement": "IC50", "setting": "[5]", "result": "> 1000", "unit": "nM"}, {"measurement": "viability, T/C", "setting": "second compound 0.03 µM, first compound 0.00316 µM", "result": 87.6, "unit": "%"}, {"measurement": "viability, T/C", "setting": "second compound 0.03 µM, first compound 0.01 µM", "result": 93.2, "unit": "%"}, {"measurement": "viability, T/C", "setting": "[6]", "result": 99.5, "unit": "%"}, {"measurement": "viability, T/C", "setting": "[7]", "result": 91.3, "unit": "%"}, {"measurement": "viability, T/C", "setting": "[8]", "result": 105, "unit": "%"}, {"measurement": "viability, T/C", "setting": "[9]", "result": 109, "unit": "%"}, {"measurement": "viability, T/C", "setting": "second compound 0.0949 µM, first compound 0.00316 µM", "result": 91.2, "unit": "%"}, {"measurement": "viability, T/C", "setting": "second compound 0.0949 µM, first compound 0.01 µM", "result": 94.9, "unit": "%"}, {"measurement": "viability, T/C", "setting": "[10]", "result": 97, "unit": "%"}, {"measurement": "viability, T/C", "setting": "[11]", "result": 102, "unit": "%"}, {"measurement": "viability, T/C", "setting": "[12]", "result": 91.3, "unit": "%"}, {"measurement": "viability, T/C", "setting": "[13]", "result": 109, "unit": "%"}, {"measurement": "viability, T/C", "setting": "second compound 0.3 µM, first compound 0.00316 µM", "result": 89, "unit": "%"}, {"measurement": "viability, T/C", "setting": "second compound 0.3 µM, first compound 0.01 µM", "result": 96.9, "unit": "%"}, {"measurement": "viability, T/C", "setting": "[14]", "result": 96.6, "unit": "%"}, {"measurement": "viability, T/C", "setting": "[15]", "result": 89.8, "unit": "%"}, {"measurement": "viability, T/C", "setting": "[16]", "result": 101, "unit": "%"}, {"measurement": "viability, T/C", "setting": "[17]", "result": 105, "unit": "%"}, {"measurement": "viability, T/C", "setting": "second compound 0.949 µM, first compound 0.00316 µM", "result": 99.5, "unit": "%"}, {"measurement": "viability, T/C", "setting": "second compound 0.949 µM, first compound 0.01 µM", "result": 98.3, "unit": "%"}, {"measurement": "viability, T/C", "setting": "[18]", "result": 92.2, "unit": "%"}, {"measurement": "viability, T/C", "setting": "[19]", "result": 88.8, "unit": "%"}, {"measurement": "viability, T/C", "setting": "[20]", "result": 122, "unit": "%"}, {"measurement": "viability, T/C", "setting": "[21]", "result": 113, "unit": "%"}, {"measurement": "viability, T/C", "setting": "second compound 3 µM, first compound 0.00316 µM", "result": 96.1, "unit": "%"}, {"measurement": "viability, T/C", "setting": "second compound 3 µM, first compound 0.01 µM", "result": 93.8, "unit": "%"}, {"measurement": "viability, T/C", "setting": "[22]", "result": 96.3, "unit": "%"}, {"measurement": "viability, T/C", "setting": "[23]", "result": 94.7, "unit": "%"}, {"measurement": "viability, T/C", "setting": "[24]", "result": 106, "unit": "%"}, {"measurement": "viability, T/C", "setting": "[25]", "result": 104, "unit": "%"}]}]}
